Numbers after ± are expanded uncertainties.
Test: mn = molality of the nth substance listed, in mol/kg
Conditions: 101 kPa, Liquid

Which mass density (298.15 K, m1 = 1.667) does the source give for `NC(CO)(CO)CO` [2-amino-2-(hydroxymethyl)-1,3-propanediol] + O here?
Its mass density is 1043.81 ± 1.5 kg/m3.

And the mass density (298.15 K, m1 = 2.294)?
Its mass density is 1053.88 ± 1.7 kg/m3.

What about the mass density (298.15 K, m1 = 2.945) of the same compound?
The mass density was 1065.01 ± 1.8 kg/m3.

What about the mass density (298.15 K, m1 = 3.66) of the same compound?
Its mass density is 1077.08 ± 2 kg/m3.

What about the mass density (298.15 K, m1 = 4.271) of the same compound?
Its mass density is 1086.34 ± 2.1 kg/m3.

And the mass density (298.15 K, m1 = 4.908)?
The mass density was 1098.03 ± 2.2 kg/m3.

What about the mass density (298.15 K, m1 = 5.586) of the same compound?
The mass density was 1106.97 ± 2.3 kg/m3.

What about the mass density (303.15 K, m1 = 1.667) of the same compound?
Its mass density is 1042.04 ± 1.5 kg/m3.

And the mass density (303.15 K, m1 = 2.294)?
Its mass density is 1052.01 ± 1.6 kg/m3.

And the mass density (303.15 K, m1 = 2.945)?
Its mass density is 1063.04 ± 1.8 kg/m3.

And the mass density (303.15 K, m1 = 3.66)?
The mass density was 1075.01 ± 1.9 kg/m3.

What about the mass density (303.15 K, m1 = 4.271) of the same compound?
The mass density was 1084.19 ± 2 kg/m3.

And the mass density (303.15 K, m1 = 4.908)?
Its mass density is 1095.81 ± 2.2 kg/m3.

What about the mass density (303.15 K, m1 = 5.586) of the same compound?
The mass density was 1104.68 ± 2.3 kg/m3.

And the mass density (310.15 K, m1 = 1.667)?
Its mass density is 1039.3 ± 1.5 kg/m3.

And the mass density (310.15 K, m1 = 2.294)?
The mass density was 1049.14 ± 1.6 kg/m3.

What about the mass density (310.15 K, m1 = 2.945) of the same compound?
The mass density was 1060.05 ± 1.8 kg/m3.

And the mass density (310.15 K, m1 = 3.66)?
The mass density was 1071.88 ± 1.9 kg/m3.

What about the mass density (310.15 K, m1 = 4.271) of the same compound?
Its mass density is 1080.98 ± 2 kg/m3.

What about the mass density (310.15 K, m1 = 4.908) of the same compound?
Its mass density is 1092.51 ± 2.1 kg/m3.

And the mass density (310.15 K, m1 = 5.586)?
The mass density was 1101.29 ± 2.3 kg/m3.

And the mass density (318.15 K, m1 = 1.667)?
The mass density was 1035.79 ± 1.4 kg/m3.

What about the mass density (318.15 K, m1 = 2.294) of the same compound?
Its mass density is 1045.51 ± 1.6 kg/m3.

And the mass density (318.15 K, m1 = 2.945)?
The mass density was 1056.29 ± 1.7 kg/m3.

And the mass density (318.15 K, m1 = 3.66)?
The mass density was 1068.02 ± 1.9 kg/m3.

And the mass density (318.15 K, m1 = 4.271)?
Its mass density is 1077.02 ± 2 kg/m3.

What about the mass density (318.15 K, m1 = 4.908) of the same compound?
The mass density was 1088.46 ± 2.1 kg/m3.

And the mass density (318.15 K, m1 = 5.586)?
The mass density was 1097.18 ± 2.2 kg/m3.

What about the mass density (323.15 K, m1 = 1.667) of the same compound?
The mass density was 1033.4 ± 1.4 kg/m3.

What about the mass density (323.15 K, m1 = 2.294) of the same compound?
Its mass density is 1043.01 ± 1.5 kg/m3.

And the mass density (323.15 K, m1 = 2.945)?
The mass density was 1053.79 ± 1.7 kg/m3.

And the mass density (323.15 K, m1 = 3.66)?
The mass density was 1065.43 ± 1.8 kg/m3.

And the mass density (323.15 K, m1 = 4.271)?
The mass density was 1074.4 ± 1.9 kg/m3.

And the mass density (323.15 K, m1 = 4.908)?
The mass density was 1085.8 ± 2.1 kg/m3.

And the mass density (323.15 K, m1 = 5.586)?
The mass density was 1094.46 ± 2.2 kg/m3.

What about the mass density (328.15 K, m1 = 1.667) of the same compound?
The mass density was 1030.82 ± 1.4 kg/m3.

What about the mass density (328.15 K, m1 = 2.294) of the same compound?
Its mass density is 1039.97 ± 1.5 kg/m3.

What about the mass density (328.15 K, m1 = 2.945) of the same compound?
The mass density was 1051.16 ± 1.6 kg/m3.

And the mass density (328.15 K, m1 = 3.66)?
Its mass density is 1062.67 ± 1.8 kg/m3.

What about the mass density (328.15 K, m1 = 4.271) of the same compound?
Its mass density is 1071.63 ± 1.9 kg/m3.

And the mass density (328.15 K, m1 = 4.908)?
The mass density was 1083.04 ± 2 kg/m3.

And the mass density (328.15 K, m1 = 5.586)?
The mass density was 1091.67 ± 2.1 kg/m3.

What does the source list for `O=S(=O)(O)CCCCNC(CO)(CO)CO` [N-tris(Hydroxymethyl)methyl-4-aminobutanesulfonic acid] + O?
mass density (298.15 K, m1 = 0.9378): 1067.23 ± 0.94 kg/m3; mass density (298.15 K, m1 = 1.552): 1100.73 ± 1.2 kg/m3; mass density (298.15 K, m1 = 2.487): 1143.55 ± 1.4 kg/m3; mass density (298.15 K, m1 = 4.08): 1200.45 ± 1.8 kg/m3; mass density (298.15 K, m1 = 4.796): 1218.48 ± 2 kg/m3; mass density (298.15 K, m1 = 5.154): 1228.57 ± 2 kg/m3; mass density (298.15 K, m1 = 5.549): 1235.88 ± 2.1 kg/m3; mass density (303.15 K, m1 = 0.9378): 1065.48 ± 0.92 kg/m3; mass density (303.15 K, m1 = 1.552): 1098.86 ± 1.1 kg/m3; mass density (303.15 K, m1 = 2.487): 1141.42 ± 1.4 kg/m3; mass density (303.15 K, m1 = 4.08): 1198.12 ± 1.8 kg/m3; mass density (303.15 K, m1 = 4.796): 1216.1 ± 1.9 kg/m3; mass density (303.15 K, m1 = 5.154): 1226.17 ± 2 kg/m3; mass density (303.15 K, m1 = 5.549): 1233.46 ± 2.1 kg/m3; mass density (310.15 K, m1 = 0.9378): 1062.76 ± 0.91 kg/m3; mass density (310.15 K, m1 = 1.552): 1095.93 ± 1.1 kg/m3; mass density (310.15 K, m1 = 2.487): 1138.29 ± 1.4 kg/m3; mass density (310.15 K, m1 = 4.08): 1194.76 ± 1.8 kg/m3; mass density (310.15 K, m1 = 4.796): 1212.71 ± 1.9 kg/m3; mass density (310.15 K, m1 = 5.154): 1222.74 ± 2 kg/m3; mass density (310.15 K, m1 = 5.549): 1229.98 ± 2 kg/m3; mass density (318.15 K, m1 = 0.9378): 1059.29 ± 0.89 kg/m3; mass density (318.15 K, m1 = 1.552): 1092.31 ± 1.1 kg/m3; mass density (318.15 K, m1 = 2.487): 1134.48 ± 1.4 kg/m3; mass density (318.15 K, m1 = 4.08): 1190.76 ± 1.8 kg/m3; mass density (318.15 K, m1 = 4.796): 1208.68 ± 1.9 kg/m3; mass density (318.15 K, m1 = 5.154): 1218.68 ± 2 kg/m3; mass density (318.15 K, m1 = 5.549): 1225.89 ± 2 kg/m3; mass density (323.15 K, m1 = 0.9378): 1056.9 ± 0.87 kg/m3; mass density (323.15 K, m1 = 1.552): 1089.87 ± 1.1 kg/m3; mass density (323.15 K, m1 = 2.487): 1131.99 ± 1.4 kg/m3; mass density (323.15 K, m1 = 4.08): 1188.17 ± 1.8 kg/m3; mass density (323.15 K, m1 = 4.796): 1206.07 ± 1.9 kg/m3; mass density (323.15 K, m1 = 5.154): 1216.06 ± 2 kg/m3; mass density (323.15 K, m1 = 5.549): 1223.25 ± 2 kg/m3; mass density (328.15 K, m1 = 0.9378): 1054.08 ± 0.85 kg/m3; mass density (328.15 K, m1 = 1.552): 1086.99 ± 1.1 kg/m3; mass density (328.15 K, m1 = 2.487): 1129.4 ± 1.4 kg/m3; mass density (328.15 K, m1 = 4.08): 1185.52 ± 1.8 kg/m3; mass density (328.15 K, m1 = 4.796): 1203.41 ± 1.9 kg/m3; mass density (328.15 K, m1 = 5.154): 1213.41 ± 1.9 kg/m3; mass density (328.15 K, m1 = 5.549): 1220.58 ± 2 kg/m3
